Experimental data from paper PMC6085350, “Small molecule inhibitors of RAS-effector protein interactions derived using an intracellular antibody fragment” (Nature Communications, 2018).

How the values were obtained:
HRASG12V-GTPγS = target: T1, HRASG12V-GTPγS (Homo sapiens, UniProt P01112, G12V); experiment: waterLOGSY NMR titration for Kd; type: binding
T1 construct: expression of HRAS (1-166) HRAS^G12V or KRAS^G12V cDNA cloned into the pGEX-2T vector; GST (N); made in house; host or cells: E. coli C41(DE3)
Description: The waterLOGSY NMR method[35] was used to measure RAS ligand interaction. WaterLOGSY experiments were conducted at a ^1H frequency of 600 MHz using a Bruker Avance spectrometer equipped with a BBI probe. All experiments were conducted at 298 K, 3 mm diameter NMR tubes with a sample final volume of 200 µl was used in all experiments. Solutions were buffered using an H2O 10 mM PBS, 5 mM MgCl2 buffer corrected to pH 7.4. The sample preparation is exemplified as follows, the compound (10 µl of a […] solution in DMSO-d6) was added to an eppendorf before sequential addition of the H2O PBS buffer (163.6 µl), D2O (20 µl), and protein (6.4 µl, 311.8 µM). The resulting solution was spun to ensure full mixing and transferred to a 3 mm NMR tube before running the experiment. […]
NMR spectra from the Abd-2 titration ranging from 50 to 400μM compound. The dissociation constant of Abd-2 binding to HRASG12V-GTPγS was determined from the curve generated by plotting the reduction of the NMR signal from a selected peak (depicted in green) during the compound titration against the protein. […]

RAS-effector PPI = experiment: RAS biosensor BRET assay (partners not specified); type: cell-based, human
Description: The BRET assay was carried out as described elsewhere. A total of 650,000 HEK293T were seeded in each well of a six well plate. Approximately, 24 h later, cells were transfected with an appropriated BRET-based RAS biosensor (i.e. RAS-effector) using Lipofectamine 2000 transfection reagent (Thermo-Fisher). Cells were detached 24 h later and washed with PBS and seeded in a white 96 well plate (clear bottom, PerkinElmer, cat#6005181) in OptiMEM no phenol red medium (Life Technologies) complemented with 4% FBS. Cells were left for 4 h at 37 °C before adding compounds. […] The final concentrations in the cells were 0, 5, 10 and 20 μM (therefore the intermediate 10X concentrations were 0, 50, 100 and 200 μM. Furthermore, 10 μl of 10X compounds were added in each well of the 96 well plate to 0, 5, 10 and 20 μM final concentrations (with final 0.2% DMSO each). Quadruplicates were performed for each point. Cells were left for an additional 20 h at 37 °C before the BRET2 signal reading directly after addition of Coelenterazine 400a substrate (10 μM final) to cells (Cayman Chemicals, cat#16157). BRET2 reading was carried out on an Envision instrument (2103 Multilabel Reader, PerkinElmer) with the BRET2 Dual Emission optical module (515 nm ± 30 and 410 nm ± 80; PerkinElmer).

HRAS^G12V-GppNHp = target: T2, HRAS^G12V-GppNHp (Homo sapiens, UniProt P01112, G12V); experiment: SPR binding to HRAS G12V-GppNHp
T2 construct: expression of HRAS (1-166) HRAS^G12V or KRAS^G12V cDNA cloned into the pGEX-2T vector; made in house; host or cells: E. coli C41(DE3)
Description: A BIAcore T100 (GE Healthcare) was used to screen the fragment library for RAS binders. A polyclonal goat anti-GST antibody (GE Healthcare) was immobilized on a CM5 sensor chip (GE Healthcare) by the amine coupling method. To immobilize the antibody on CM5 chip, the chip was first activated by injecting 100 µl mixture of 0.2 M EDC (N-ethyl-N-(dimethylaminopropyl) carbodiimide hydrochloride) and 0.05 M NHS (N-hydroxysuccinimide) at 10 µl/min flow rate. Furthermore, 100 µg/ml anti-GST antibody in 10 mM sodium acetate, pH 5.0 was injected at 5 µl/min for 900 s and immobilized until 20,000 ~ 25,000 RU. After immobilization the chip was immediately inactivated by injecting 1 M ethanolamine, pH 8.5 at 10 µl/min for 600 s. The chip was kept running in the HBS buffer (GE Healthcare) comprising 10 mM HEPES, […], 150 mM NaCl. […] Before fragment library screening, the running buffer was replaced by 20 mM Tris, pH 8, 150 mM NaCl, 5 mM MgCl2, 5% DMSO. DMSO solvent correction curves were generated by injecting the running buffers with serial concentrations of DMSO ranging from 4.5 to 6%. For fragment screening, each compound was diluted at 200 µM or 1 mM, 5% DMSO in 20 mM Tris, pH 8, 150 mM NaCl, 5 mM MgCl2 buffer in a polypropylene 96 well plate. The individual compounds were injected at 30 µl for 60 s at 30 µl/min flow rate over flow cells Fc1, Fc2, Fc3 and Fc4. […]

PI3KC2 [1] = experiment: Kinase panel (KinaseProfiler), first PI3KC2 line; type: biochemical, human; conditions: PI3KC2 (first of two lines), 10μM
Description: (§1) Experiments were performed by Eurofins Pharma Discovery Services. The KinaseProfiler™ assay protocol guide can be downloaded from their website: www.eurofins.com/discoveryservices. The guide contains information on the buffer conditions, substrate and reference inhibitor blank used for each kinase.
(§2) Supplementary Table 3. Assessment of potential interaction of Abd-7 with a human kinase
(§3) Kinase % kinase activity in
(§4) A panel of 14 Kinases (relevant to the RAS pathway) has been screened against Abd-7
(§5) (10μM) and the kinase activity was measured. […] of activity was observe for all
(§6) function of the selected and RAS relevant kinase proteins.

PI3KC2 [2] = experiment: Kinase panel (KinaseProfiler), second PI3KC2 line; type: biochemical, human; conditions: PI3KC2 (second of two lines), 10μM
Description: as §1, §2, §3, §4, §5, §6

| ligand efficiency (HRASG12V-GTPγS) | Kd (HRASG12V-GTPγS; waterLOGSY titration 50 to 400 μM compound, single experimental analysis, read-out: Kd (dissociation constant)) [µM] | binding to^G12V-GppNHp (SPR) (HRAS^G12V-GppNHp) | % kinase activity in the presence of Abd-7 (PI3KC2 [1]) [%] | % kinase activity in the presence of Abd-7 (PI3KC2 [2]) [%] | Structure (SMILES) | activity in the RAS biosensor BRET assay (RAS-effector PPI) |
| --- | --- | --- | --- | --- | --- | --- |
| 0.26 | 235 | binds | – | – | O=C(NCC1COc2ccccc2O1)c1ccco1 (stereo not drawn) [Abd-2] | do not show activity |
| – | – | – | 102 | 108 | COc1nc(-c2cccc3c2OCCO3)ccc1Nc1ccc(CN(C)C)cc1 [Abd-7] | – |
